Experimental data from patent US9688681B2, “Heterocyclic compounds as pest control agents” (BAYER CROPSCIENCE AKTIENGESELLSCHAFT, priority 2013, dated 2017).
Where two headings read alike, the source gives them in different places.

Legend:
[1] = log P by HPLC on reversed-phase C18 columns (OECD Guideline 117); type: physicochemical; conditions: for chromatographic logP: reversed-phase C18 HPLC column
[2] = system: green peach aphid (Myzus persicae); test: Myzus persicae spray test on Chinese cabbage leaf discs; type: in vivo; conditions: application rate 500 g/ha, after 6 days
Description: Discs of Chinese cabbage leaves (Brassica pekinensis) infested by all stages of the green peach aphid (Myzus persicae) are sprayed with an active ingredient formulation of the desired concentration.

[3] = HPLC RP C18, acidic range pH 2.7, 0.1% aqueous formic acid/acetonitrile
[4] = pH 2.7, HPLC RP C18, acidic range pH 2.7, 0.1% aqueous formic acid/acetonitrile, read-out: logP[a]
[5] = pH 7.8, HPLC RP C18, neutral range pH 7.8, 0.001 molar aqueous ammonium hydrogencarbonate/acetonitrile, read-out: logP[b]
[6] = HPLC RP C18, neutral range pH 7.8, 0.001 molar aqueous ammonium hydrogencarbonate/acetonitrile

Structure (SMILES)	chromatographic logP [1, 4]	chromatographic logP [1, 5]	logP[a] [1, 3]	efficacy (aphids killed) [2]	also measured
O=c1c2cn(-c3cccnc3)nc2ncn1CC(F)(F)F [compound 12]	–	–	1.27	100%	–
CN(C)C(=O)Cn1cnc2nn(-c3cccnc3)cc2c1=O [compound 22]	–	–	0.47	90%	logP[b] [1, 6]: 0.51
CC(C)n1cnc2nn(-c3cccnc3)cc2c1=O [compound 15, 5-Isopropyl-2-(pyridin-3-yl)-2,5-dihydro-4H-pyrazolo[3,4-d]pyrimidin-4-one]	1.06	1.12	–	100%	–
O=c1c2cn(-c3cccnc3)nc2ncn1CC1CCCO1 (stereo not shown) [compound 17]	–	–	1.07	100%	logP[b] [1, 6]: 1.12
O=c1c2cnn(-c3cccnc3)c2ncn1Cc1ncccn1 [compound 5]	–	–	–	90%	logP[a] ([1]; pH 2.7): 0.80; logP[b] ([1]; pH 7.8): 0.91
CCn1cnc2nn(-c3cccnc3)cc2c1=O [compound 16, 5-Ethyl-2-(pyridin-3-yl)-2,5-dihydro-4H-pyrazolo[3,4-d]pyrimidin-4-one]	0.7	0.84	–	100%	–
O=c1c2cnn(-c3cccnc3)c2ncn1-c1ccccc1 [compound 2]	–	–	1.57	90%	–
O=c1c2cnn(-c3cccnc3)c2ncn1CC(F)(F)F [compound 3]	–	–	–	100%	logP[a] ([1]; pH 2.7): 1.48
CCOC(=O)c1cnn(-c2cccnc2)c1N [IIIa-1, Ethyl 5-amino-1-(pyridin-3-yl)-1H-pyrazole-4-carboxylate]	–	–	1.10	–	–
CCOC(=O)Cn1cnc2nn(-c3cccnc3)cc2c1=O [compound 19]	–	–	0.98	100%	logP[b] [1, 6]: 1.09
CC(C)n1cnc2nn(-c3cncnc3)cc2c1=O [compound 37]	–	–	–	100%	logP[a] ([1]; pH 2.7): 0.93; logP[b] ([1]; pH 7.8): 0.92
O=c1c2cn(-c3cccnc3)nc2ncn1C1CC1 [compound 23]	–	–	0.79	100%	logP[b] [1, 6]: 0.83
O=c1c2cn(-c3cccnc3)nc2ncn1CC(F)F [compound 25]	–	–	0.91	100%	logP[b] [1, 6]: 0.96
O=c1c2cnn(-c3cccnc3)c2ncn1-c1ccc(Cl)cc1 [compound 4]	–	–	2.04	90%	–
Cn1cnc2nn(-c3cccnc3)cc2c1=O [compound 18]	–	–	0.45	100%	logP[b] [1, 6]: 0.52
Cn1cnc2c(cnn2-c2cncnc2)c1=O [compound 8, 5-Methyl-1-(pyrimidin-5-yl)-1,5-dihydro-4H-pyrazolo[3,4-d]pyrimidin-4-one]	0.55	0.55	–	–	–
O=c1c2cn(-c3cccnc3)nc2ncn1-c1ccccc1 [compound 10]	–	–	1.40	90%	–
CC(C)NC(=O)c1cn(-c2ccnnc2)nc1N [IIb-3-1, 3-Amino-N-isopropyl-1-pyridazin-4-yl-pyrazole-4-carboxamide]	0.74	0.74	–	–	–
N#CC1(n2cnc3nn(-c4cccnc4)cc3c2=O)CC1 [compound 30]	–	–	0.82	100%	logP[b] [1, 6]: 0.85
CCOC(=O)C(C#N)=CN(N=Cc1ccccc1)c1cccnc1 [VIII-1, Ethyl 3-[2-benzylidene-1-(pyridin-3-yl)hydrazino]-2-cyanoacrylate]	2.54	2.48	–	–	–
CCn1c(C(F)(F)F)nc2nn(-c3cccnc3)cc2c1=O [compound 32, 5-Ethyl-2-(pyridin-3-yl)-6-(trifluoromethyl)-2,5-dihydro-4H-pyrazolo[3,4-d]pyrimidin-4-one]	2.07	2.06	–	–	–
CC(C)(C)Cn1cnc2nn(-c3cccnc3)cc2c1=O [compound 34]	–	–	1.70	100%	logP[b] [1, 6]: 1.71
Cn1cnc2c(cnn2-c2cccnc2)c1=O [compound 7]	–	–	–	–	logP[a] ([1]; pH 2.7): 0.58; logP[b] ([1]; pH 7.8): 0.82
O=c1c2cn(-c3ccccc3)nc2ncn1Cc1ncccn1 [compound 11]	–	–	0.63	100%	–
Cc1ccc(-n2cnc3nn(-c4cccnc4)cc3c2=O)cc1 [compound 39]	–	–	1.73	100%	logP[b] [1, 6]: 1.73
CC(C)n1cnc2c(cnn2-c2cccnc2)c1=O [compound 1]	–	–	–	–	logP[a] ([1]; pH 2.7): 1.31
CCOC(=O)c1cn(-c2ccnnc2)nc1N [IIIb-3, ethyl 3-amino-1-pyridazin-4-yl-pyrazole-4-carboxylate]	0.9	0.94	–	–	–
CCOC(=O)c1cn(-c2cncnc2)nc1N [IIIb-2, ethyl 3-amino-1-(pyrimidin-5-yl)-1H-pyrazole-4-carboxylate]	1.12	1.08	–	–	–
C(=NNc1cccnc1)c1ccccc1 [VII-1, Benzaldehyde pyridin-3-yl hydrazone]	0.86	2.22	–	–	–
CCn1cnc2nn(-c3cccnc3)cc2c1=O [compound 9]	–	–	0.80	–	–

More lines, main results first:

chromatographic logP [1, 4]	chromatographic logP [1, 5]	Structure (SMILES)	logP[a] [1, 3]	efficacy (aphids killed) [2]	also measured
1.12	1.12	CCOC(=O)c1cnn(-c2ccnnc2)c1N [IIIa-3, Ethyl 5-amino-1-pyridazin-4-yl-pyrazole-4-carboxylate]	–	–	–
1.18	1.27	CCOC(=O)c1cnn(-c2cccnc2)c1N [(IIIa-1). HCOOH, ethyl 5-amino-1-(pyridin-3-yl)-1H-pyrazole-4-carboxylate]	–	–	–
0.82	1.05	CC(C)NC(=O)c1cn(-c2cccnc2)nc1N [IIb-1-2, 3-Amino-N-isopropyl-1-(pyridin-3-yl)-1H-pyrazole-4-carboxamide]	–	–	–
1.16	1.12	CCOC(=O)c1cnn(-c2cncnc2)c1N [IIIa-2, Ethyl 5-amino-1-(pyrimidin-5-yl)-1H-pyrazole-4-carboxylate]	–	–	–
0.45	0.77	CCNC(=O)c1cn(-c2cccnc2)nc1N [IIb-1-1, 3-Amino-N-ethyl-1-(pyridin-3-yl)-1H-pyrazole-4-carboxamide]	–	–	–
0.93	1.03	CCn1c(C)nc2nn(-c3cccnc3)cc2c1=O [compound 29, 5-Ethyl-6-methyl-2-(pyridin-3-yl)-2,5-dihydro-4H-pyrazolo[3,4-d]pyrimidin-4-one]	–	90%	–
0.98	1.15	CCn1cnc2c(cnn2-c2cccnc2)c1=O [compound 6, 5-Ethyl-1-(pyridin-3-yl)-1,5-dihydro-4H-pyrazolo[3,4-d]pyrimidin-4-one]	–	–	–
0.5	0.56	CCNC(=O)c1cnn(-c2cccnc2)c1N [IIa-1-1, 5-Amino-N-ethyl-1-(pyridin-3-yl)-1H-pyrazole-4-carboxamide]	–	–	–
1.12	1.32	CCOC(=O)c1cn(-c2cccnc2)nc1N [IIIb-1, Ethyl 3-amino-1-(pyridin-3-yl)-1H-pyrazole-4-carboxylate]	–	–	–
0.18	-0.01	CNC(=O)c1cnn(-c2cncnc2)c1N [IIb-2-1, 5-Amino-N-methyl-1-(pyrimidin-5-yl)-1H-pyrazole-4-carboxamide]	–	–	–
